Experimental data published in patent US20060014712A1, “Controlled delivery of therapeutic compounds” (CeMines, Inc., priority 2004, published 2006).

Columns and labels:
Assay type in all cases: cell-based, human
SK-MEL-28 [1] = test: Cell counting after 7 day peptide treatment; details: conc 10 µM, start count 10
Procedure: (§1) The ability to block interaction of MITF, SOX10 and STAT3 with active transcriptional complex and inhibit proliferation and stimulate apoptosis of melanoma cells were tested on human melanoma cell lines SK-MEL-28 and WM 266-4, and mouse melanoma cell line B16. Methods. Human melanoma cell lines SK-MEL-28 and WM 2664 and mouse melanoma cell line B16 were obtained from the American Tissue Culture Collection (ATCC). Cells were cultured according to recommendations of ATCC (DMEM, 10% FCS, penicillin+streptomycin) and used in experiments after two passages in the laboratory. Cells were grown in 24 well plates, each treatment in triplicates. Cells were plated 16 hours prior treatments started. Peptides were added to the media, and media was changed every day during 7 day experiment. CPP concentration was 10 μM For cell counting, cells were trypsinized (0.25% Trypsin, 2 mM EDTA) in Ca^+2, Mg^+2 free PBS. Cells were precipitated and resuspended in 100 μl of PBS, and 5 μl were removed for counting Methods. Human melanoma cell lines SK-MEL-28 and WM 266-4 were obtained from the American Tissue Culture Collection (ATCC) and were cultured according to recommendations of ATCC (DMEM, 10% FCS, penicillin+streptomycin). Human keratinocytes were obtained from Clonetics and cultured according to manufacturers protocol. Cells were used in experiments after two passages in the laboratory. Cells were grown in 24 well plates, each treatment in triplicates. Cells were plated 16 hours prior treatments started. Peptides were added to the media, and media was changed every day during 7 day experiment. CPP concentration was 10 μM. For cell counting, cells were trypsinized (0.25% Trypsin, 2 mM EDTA) in Ca, Mg free PBS. Cells were precipitated and resuspended in 100 μl of PBS, and 5 μl were removed for counting.

WM 266-4 [2] = test: WST-1 test (mitochondrial activity); details: conc 10 µM, untreated = 1
Procedure: (§2) Methods. Human melanoma cell lines SK-MEL-28 and WM 2664 and mouse melanoma cell line B16 were obtained from the American Tissue Culture Collection (ATCC). Cells were cultured according to recommendations of ATCC (DMEM, 10% FCS, penicillin+streptomycin) and used in experiments after two passages in the laboratory. Cells were grown in 24 well plates, each treatment in triplicates. Cells were plated 16 hours prior treatments started. Peptides were added to the media, and media was changed every day during 7 day experiment. […] Methods. Human melanoma cell lines SK-MEL-28 and WM 266-4 were obtained from the American Tissue Culture Collection (ATCC) and were cultured according to recommendations of ATCC (DMEM, 10% FCS, penicillin+streptomycin). Human keratinocytes were obtained from Clonetics and cultured according to manufacturers protocol. Cells were used in experiments after two passages in the laboratory. Cells were grown in 24 well plates, each treatment in triplicates. Cells were plated 16 hours prior treatments started. Peptides were added to the media, and media was changed every day during 7 day experiment. […] WST-1 test was performed to measure mitochondrial activity, which can also be used as a measure of cell number.

SK-MEL-28 [3] = test: WST-1 test (mitochondrial activity); details: conc 10 µM, untreated = 1
WM 266-4 [4] = test: Apoptosis, Annexin V-Cy3 Apoptosis Kit; details: conc 10 µM
Procedure: as §2, with “Apoptosis” for “WST-1 test”, “analyzed using Biovision Annexin V-Cy3 Apoptosis Kit according” for “performed”, “manufacturers protocols.” for “measure mitochondrial activity, which can also be used as a measure of cell number.”

WM 266-4 [5] = test: Cell counting after 7 day peptide treatment; details: conc 10 µM, start count 10
Procedure: as §1, with “CPP concentration was 10 μM For cell counting, cells were trypsinized (0.25% Trypsin, 2 mM EDTA) in Ca^+2, Mg^+2 free PBS.” left out, “CPP concentration was 10 μM.” left out

RPKKRKVRRRFNINDRIKELGTLIPKSNDPDMRWN [MITF-int1]
Cell Count 7 d (SK-MEL-28 [1]; CPP mimicking peptides): 39 | WST-1 7 d (WM 266-4 [2]; CPP mimicking peptides): 0.8 | WST-1 7 d (SK-MEL-28 [3]; CPP mimicking peptides): 0.7 | Apoptosis 7 d/% (WM 266-4 [4]; CPP mimicking peptides): 21% | Cell Count 7 d (WM 266-4 [5]; CPP mimicking peptides): 30

TTGGSSPQGLEAKRPKKRKVRRRFNINDRIKELGTLIPKSNDPDMRWN [MITF-int1M]
Cell Count 7 d (SK-MEL-28 [1]; modified (inhibitor/MMP2, MMP9 site) peptides): 42 | WST-1 7 d (WM 266-4 [2]; modified peptides): 0.8 | WST-1 7 d (SK-MEL-28 [3]; modified peptides): 0.81 | Apoptosis 7 d/% (WM 266-4 [4]; modified peptides): 21% | Cell Count 7 d (WM 266-4 [5]; modified peptides): 25

RPKKRKVRRRVKRPMNAFMVWAQAARRKLADQY [SOX10-int1]
Cell Count 7 d (SK-MEL-28 [1]; CPP mimicking peptides): 28 | WST-1 7 d (WM 266-4 [2]; CPP mimicking peptides): 0.6 | WST-1 7 d (SK-MEL-28 [3]; CPP mimicking peptides): 0.51 | Apoptosis 7 d/% (WM 266-4 [4]; CPP mimicking peptides): 31% | Cell Count 7 d (WM 266-4 [5]; CPP mimicking peptides): 25
